Assay results as given in the NIST ThermoML archive (doi:10.1016/j.fluid.2013.12.022).

Assay: refractive index (other wavelength) (dimensionless); xn = mol fraction of the nth substance listed
Details: 85 kPa, Liquid, Wavelength=632.8 nm, minimum deviation angle technique

CCCCCCCC[n+]1ccn(C)c1.F[P-](F)(F)(F)(F)F [1-octyl-3-methylimidazolium hexafluorophosphate] + CC(C)(C)O
Details | refractive index
312.06 K, x1 = 1 | 1.4179
314.47 K, x1 = 1 | 1.4173
316.92 K, x1 = 1 | 1.4166
317.23 K, x1 = 0.699 | 1.4113
317.35 K, x1 = 0.803 | 1.4134
317.36 K, x1 = 0.991 | 1.4149
317.38 K, x1 = 0.398 | 1.4034
319.13 K, x1 = 0.5 | 1.4064
319.2 K, x1 = 1 | 1.416
319.25 K, x1 = 0.699 | 1.4107
319.26 K, x1 = 0.803 | 1.4129
319.3 K, x1 = 0.991 | 1.4144
319.31 K, x1 = 0.398 | 1.4028
319.63 K, x1 = 0.601 | 1.4088
320.77 K, x1 = 0.5 | 1.4059
321.17 K, x1 = 0.1 | 1.3834
321.28 K, x1 = 0.991 | 1.4139
321.32 K, x1 = 1 | 1.4155
321.34 K, x1 = 0.803 | 1.4124
321.37 K, x1 = 0.2 | 1.3919
321.38 K, x1 = 0.299 | 1.3978
321.4 K, x1 = 0.699 | 1.4102
321.46 K, x1 = 0.398 | 1.4021
321.58 K, x1 = 0.601 | 1.4083
322.42 K, x1 = 0.5 | 1.4054
322.78 K, x1 = 0.299 | 1.3972
322.79 K, x1 = 0.2 | 1.3912
322.97 K, x1 = 0.1 | 1.3826
323.23 K, x1 = 0.991 | 1.4134
323.3 K, x1 = 1 | 1.4149
323.32 K, x1 = 0.699 | 1.4097
323.32 K, x1 = 0.803 | 1.4118
323.79 K, x1 = 0.601 | 1.4077
323.84 K, x1 = 0.398 | 1.4013
324.07 K, x1 = 0.5 | 1.4049
324.29 K, x1 = 0.2 | 1.3906
324.29 K, x1 = 0.299 | 1.3967
324.43 K, x1 = 0.1 | 1.3819
325 K, x1 = 0.601 | 1.4073
325.29 K, x1 = 0.991 | 1.4128
325.3 K, x1 = 0.699 | 1.4093
325.35 K, x1 = 0.803 | 1.4113
325.38 K, x1 = 1 | 1.4143
325.78 K, x1 = 0.398 | 1.4007
325.81 K, x1 = 0.299 | 1.3963
325.82 K, x1 = 0.1 | 1.3814
325.92 K, x1 = 0.5 | 1.4043
325.95 K, x1 = 0.2 | 1.39
327.11 K, x1 = 0.699 | 1.4088
327.12 K, x1 = 0.803 | 1.4108
327.13 K, x1 = 0.601 | 1.4066
327.36 K, x1 = 0.2 | 1.3894
327.4 K, x1 = 0.991 | 1.4123
327.41 K, x1 = 1 | 1.4138
327.47 K, x1 = 0.299 | 1.3957
327.72 K, x1 = 0.398 | 1.4
327.74 K, x1 = 0.5 | 1.4037
327.97 K, x1 = 0.1 | 1.3804
328.85 K, x1 = 0.601 | 1.4061
329.18 K, x1 = 0.1 | 1.3797
329.18 K, x1 = 0.2 | 1.3887
329.26 K, x1 = 0.299 | 1.3951
